Reference: patent publication US7943159B1, “Female sex pheromone of the dogwood borer (DWB), Synanthedon scitula, and attraction inhibitor (antagonist)” (The United States of America as represented by the …, priority 2006, dated 2011)
“Also recorded” adds a separate entry of the source.

Legend:
adult male DWB antenna = experiment: Coupled GC-EAD (electroantennographic detection) of synthetic octadecadienyl acetates; parameters: species or system Synanthedon scitula; conditions: for EAD activity in 10 ng of loading: 10 ng loading, male DWB antenna, footnote: relative to E,Z-2,13-octadecadienyl acetate; for EAD activity / electroantennogram response: male DWB antennae, synthetic standards
Text: Identification of peaks: 1, ZZ 3,13-ODDA; 2, EZ 2,13-ODDA; and 3, ZE 3,13-ODDA. Electrophysiological. Recordings and Mass Spectrometry: The coupled gas chromatographic-electroantennographic detection (GC-EAD) system used was as previously described (Zhang, A., and S. Polavarapu, J. Chem. Ecol., 29: 2153-2164 (2003); Zhang, A., and S. Polavarapu, J. Chem. Ecol., 30: 1531-1545 (2004); Zhang, A., et al., J. Chem. Ecol., 23: 231-245 (1997)). A Hewlett Packard (HP) 6890 gas chromatograph equipped with a 60 m×0.25-mm i.d., 0.25-mm film-thickness DB-[…] capillary column (J&W Scientific Inc., Folsom, Calif., 120° C. for 2 min, then programmed to 250° C. at 10° C./min and held for 10 min) or a 60 m×0.25-mm i.d., 0.25-mm film-thickness DB-5 capillary column (J&W Scientific Inc., 100° C. for 2 min, then programmed to 250° C. at 15° C./min and held for 10 min) in the splitless mode with hydrogen as carrier (1.4 ml/min) was used for GC-EAD analysis. Electronic impact (EI) gas chromatography-mass spectrometry (GC-MS) was conducted on a Hewlett-Packard 6890 GC coupled to a HP 5973 Mass Selective Detector using an identical DB-[…] capillary column (120° C. for 2 min, then programmed to 230° C. at 15° C./min and held for 25 min for regular analysis, but with helium as carrier gas. A 70 eV electron beam was employed for sample ionization.

[1] = tested on: male DWB (Synanthedon scitula); experiment: Field trapping tests with lure-baited sticky traps in apple orchards; type: in vivo
Experimental: Field Trapping Tests: Red natural rubber septa (5 mm, Wheaton, N.J.) loaded with the desired rates of Z,Z-3,13-ODDA and the blends in […] of hexane solution were used for field deployment. The same amount of solvent (hexane) was loaded on the septum for the blank control. After loading, the solvent was allowed to evaporate in a fume hood for 30 min. Lures were then wrapped in aluminum foil, stored in 20 ml plastic vials, and shipped by express carrier on the same day. Upon arrival, the lures were kept in a freezer at −10° C. until deployed. All field tests were conducted in commercial apple fields in WV, VA, and NC using Pherocon 1C or Delta sticky traps (Trécé, Salinas, Calif.). Traps were placed in trees at ˜1.2 m above the ground (Riedi, Fla., et al., Cana. Entomol., 117: 1367-1377 (1985)). At each location, experimental lures were randomized within each of three to five rows (depending on the number of replicates per test) and separated by at least one buffer row, and traps were spaced at a minimum of ˜25 m intervals within a row. Traps were rotated among positions within each row at weekly intervals for the duration of each test. The number of dogwood borer, peachtree borer, lilac borer, and other male Sesiidae moths captured were recorded weekly. In the first comparison trial, the following lures were deployed: the single component (100% Z,Z-3,13 ODDA); the binary blend (Z,Z-3,13-ODDA:E,Z-2,13-ODDA=94:6); a second two-component blend (Z,Z-3,13-ODDA:Z,E-3,13-ODDA=94:6, based on the molar amount of the Z,Z-3,13-octadecadienyl acetate in the composition); the trinary blend (Z,Z-3,13-ODDA:E,Z-2,13-ODDA:Z,E-3,13-ODDA=88:6:6); and control. Next, to evaluate the attractive effect of addition of third component, 0.5, 1, 3, or 10% based on the molar amount of the Z,Z-3,13-octadecadienyl acetate of Z,E-3,13-ODDA were added into the binary blend individually. Similarly, 0.5, 1, 3, or 10% of E,Z-2,13-ODDA were individually added into a blend consisted of Z,Z-3,13-ODDA:Z, E-3,13-ODDA (94:6) to evaluate the effect of E,Z-2,13-ODDA. In another comparison, 0.5, 1, 2, or 3% E,Z-3,13-ODDA was added to the trinary blend. Dose response tests of the trinary and binary blends were deployed in each location, with doses consisting of 10-μg, 100-μg, 300-μg, 1-mg, and 10-mg (trinary blend); and 10-μg, 100-μg, 300-μg, 500-μg, and 1-mg (binary blend), respectively. Caged live virgin females (2-4 days old and 1 female per cage) were deployed in traps to provide a natural source of pheromone for comparison with traps baited with the binary and trinary blends. In a final comparison to determine over what distance DWB can detect the trinary blend, we compared captures in traps baited with the trinary blend deployed within an infested apple orchard, and 50 and […] outside the orchard within a large wood lot habitat.
Statistics: The data on control traps were omitted in the analysis because of zero trap catches. Unless otherwise specified, data on trap catches from each test were logarithm transformed (log χ+1) to normalize the variance before analysis. Means were compared by one-way analysis of variance (ANOVA) followed by Ryan-Einot-Gabriel-Welsch Range test (SPSS 10.0 for Windows, George and Mallery, 2002) for significance at α=0.05.

dogwood borer (DWB) = experiment: Species-specificity of lures: share of dogwood borer in captures; type: in vivo, Synanthedon scitula; conditions: across all sites; FIG. 10
Experimental: Field Trapping Tests: Red natural rubber septa (5 mm, Wheaton, N.J.) loaded with the desired rates of Z,Z-3,13-ODDA and the blends in […] of hexane solution were used for field deployment. The same amount of solvent (hexane) was loaded on the septum for the blank control. After loading, the solvent was allowed to evaporate in a fume hood for 30 min. Lures were then wrapped in aluminum foil, stored in 20 ml plastic vials, and shipped by express carrier on the same day. Upon arrival, the lures were kept in a freezer at −10° C. until deployed. All field tests were conducted in commercial apple fields in WV, VA, and NC using Pherocon 1C or Delta sticky traps (Trécé, Salinas, Calif.). Traps were placed in trees at ˜1.2 m above the ground (Riedi, Fla., et al., Cana. Entomol., 117: 1367-1377 (1985)). At each location, experimental lures were randomized within each of three to five rows (depending on the number of replicates per test) and separated by at least one buffer row, and traps were spaced at a minimum of ˜25 m intervals within a row. Traps were rotated among positions within each row at weekly intervals for the duration of each test. The number of dogwood borer, peachtree borer, lilac borer, and other male Sesiidae moths captured were recorded weekly. […]

| Structure (SMILES) | EAD activity in 10 ng of loading (adult male DWB antenna) | EAD activity / electroantennogram response (adult male DWB antenna) | further results |
| --- | --- | --- | --- |
| CCCC/C=C/CCCCCCCCC/C=C/COC(C)=O [(E,E)-2,13-Octadecadienyl acetate, reference compound] | 0.012 (±0.21% SD, n = 3) mV |  |  |
| CCCC/C=C/CCCCCCCC/C=C/CCOC(C)=O [(E,E)-3,13-Octadecadienyl acetate, E,E-3,13-octadecadienyl acetate, reference compound] | 0.12 (±3.5% SD, n = 3) mV |  |  |
| CCCC/C=C\CCCCCCCCC/C=C/COC(C)=O [(E,Z)-2,13-Octadecadienyl acetate, E,Z-2,13-octadecadienyl acetate] | 0.13 (±1.2% SD, n = 3) mV | confirmed by synthetic standards | effect on attraction of adding the compound to Z,Z-3,13-ODDA:Z,E-3,13-ODDA (94:6) blend ([1]; 0.5 to 10% added, FIG. 4): significantly increased; amount added to 94:6 (Z,Z-3,13-ODDA:Z,E-3,13-ODDA) blend at which captures increased significantly ([1]; all locations, FIG. 4): ≤ 1% |
| CCCC/C=C\CCCCCCCC/C=C/CCOC(C)=O [(E,Z)-3,13-Octadecadienyl acetate, E,Z-3,13-octadecadienyl acetate] | 0.30 (±8.7% SD, n = 3) mV | just as strong an electroantennogram response as Z,Z-3,13-ODDA | effect on trap captures of DWB (attraction antagonism) ([1]; added to trinary blend, FIG. 5, listed as E,Z-3,13-ODDA): reduced trap captures of DWB significantly; also recorded: inhibit (antagonize) DWB male response and movement; amount added to trinary blend that significantly inhibited (reduced) trap captures ([1]; all locations, FIG. 5, listed as E,Z-3,13-ODDA): ≤ 0.5%; amount added to trinary blend that significantly inhibited (reduced) trap captures ([1]; all locations, FIG. 5, listed as E,Z-3 μl 3-ODDA): 0.5-1% |
| CCCC/C=C/CCCCCCCCC/C=C\COC(C)=O [(Z,E)-2,13-Octadecadienyl acetate, reference compound] | 0.030 (±0.10% SD, n = 3) mV |  |  |
| CCCC/C=C/CCCCCCCC/C=C\CCOC(C)=O [(Z,E)-3,13-Octadecadienyl acetate, Z,E-3,13-octadecadienyl acetate] | 0.25 (±1.0% SD, n = 3) mV |  | effect on attraction of adding the compound to the binary blend ([1]; 0.5 to 10% added to binary blend (94:6), FIG. 3, listed as Z,E-3,13-ODDA): did not cause a significant increase in attraction; also recorded: did not observe a similar response |
| CCCC/C=C\CCCCCCCCC/C=C\COC(C)=O [(Z,Z)-2,13-Octadecadienyl acetate, reference compound] | 0.029 (±0.79% SD, n = 3) mV |  |  |
| CCCC/C=C\CCCCCCCC/C=C\CCOC(C)=O [(Z,Z)-3,13-Octadecadienyl acetate, Z,Z-3,13-octadecadienyl acetate] | 0.30 (±9.5% SD, n = 3) mV | confirmed by synthetic standards | attraction of male DWB (trap captures), blend comparison ([1]; septa containing 1-mg, NC, VA, WV, FIG. 2, listed as Z,Z-3,13-ODDA): surprisingly attractive; also recorded: reliably attract male DWB; percentage of captures that were male dogwood borers (dogwood borer (DWB)): 92-99.6% |
